Reference: patent publication US20220125051A1, “PRE-HARVEST DESICCATION METHOD” (SYNGENTA CROP PROTECTION AG, priority 2019, published 2022)
Like-named read-outs stand apart in the source and are kept apart here.

Assays:
Test in all cases: Post-emergence efficacy, Method A
Format in all cases: in vivo
[1] = system: Chenopodium album (CHEAL); conditions: Chenopodium album, post-emergence, 312 h, evaluated after 13 days
Procedure, shortened: (§1)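 Post-emergence spray on 14-day-old glasshouse plants (24/16 °C day/night, 14 h photoperiod, 65% humidity). Test material was taken up in acetone and IF50 emulsifier mix, then diluted with sodium lauryl ether sulphate (0.25% or 1%) plus 1% ammonium sulphate. Damage was rated 13 days later, 100 = total.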

Lolium perenne (LOLPE) = conditions: Lolium perenne, post-emergence, 312 h, evaluated after 13 days
Procedure, shortened: as §1

Eleusine indica (ELEIN) = conditions: Eleusine indica, post-emergence, 312 h, evaluated after 13 days
Procedure, shortened: as §1

[2] = system: Digitaria sanguinalis (DIGSA); conditions: Digitaria sanguinalis, post-emergence, 312 h, evaluated after 13 days
Procedure, shortened: as §1

[3] = system: Ipomoea hederacea (IPOHE); conditions: Ipomoea hederacea, post-emergence, 312 h, evaluated after 13 days
Procedure, shortened: as §1

[4] = system: Echinochloa crus-galli (ECHCG); conditions: Echinochloa crus-galli, post-emergence, 312 h, evaluated after 13 days
Procedure, shortened: as §1

Setaria faberi (SETFA) = conditions: Setaria faberi, post-emergence, 312 h, evaluated after 13 days
Procedure, shortened: as §1

[5] = system: Amaranthus palmeri (AMAPA); conditions: Amaranthus palmeri, post-emergence, 312 h, evaluated after 13 days
Procedure, shortened: as §1

[6] = system: Euphorbia heterophylla (EPHHL); conditions: Euphorbia heterophylla, post-emergence, 312 h, evaluated after 13 days
Procedure, shortened: as §1

[7] = Application rate 500 g/Ha, 100=total damage to plant, 0=no damage to plant, read-out: Control of weed species after post-emergence application, CHEAL
[8] = Application rate 500 g/Ha, 100=total damage to plant, 0=no damage to plant, read-out: Control of weed species after post-emergence application, LOLPE
[9] = Application rate 500 g/Ha, 100=total damage to plant, 0=no damage to plant, read-out: Control of weed species after post-emergence application, ELEIN
[10] = Application rate 500 g/Ha, 100=total damage to plant, 0=no damage to plant, read-out: Control of weed species after post-emergence application, DIGSA
[11] = Application rate 500 g/Ha, 100=total damage to plant, 0=no damage to plant, read-out: Control of weed species after post-emergence application, IPOHE
[12] = Application rate 500 g/Ha, 100=total damage to plant, 0=no damage to plant, read-out: Control of weed species after post-emergence application, ECHCG
[13] = Application rate 500 g/Ha, 100=total damage to plant, 0=no damage to plant, read-out: Control of weed species after post-emergence application, SETFA
[14] = Application rate 500 g/Ha, 100=total damage to plant, 0=no damage to plant, read-out: Control of weed species after post-emergence application, AMAPA
[15] = Application rate 500 g/Ha, 100=total damage to plant, 0=no damage to plant, read-out: Control of weed species after post-emergence application, EPHHL
[16] = Application Rate 500 g/Ha, Method A, read-out: Control of weed species after post-emergence application, CHEAL (100=total damage to plant; 0=no damage to plant)
[17] = Application Rate 500 g/Ha, Method A, read-out: Control of weed species after post-emergence application, LOLPE (100=total damage to plant; 0=no damage to plant)
[18] = Application Rate 500 g/Ha, Method A, read-out: Control of weed species after post-emergence application, ELEIN (100=total damage to plant; 0=no damage to plant)
[19] = Application Rate 500 g/Ha, Method A, read-out: Control of weed species after post-emergence application, DIGSA (100=total damage to plant; 0=no damage to plant)
[20] = Application Rate 500 g/Ha, Method A, read-out: Control of weed species after post-emergence application, IPOHE (100=total damage to plant; 0=no damage to plant)
[21] = Application Rate 500 g/Ha, Method A, read-out: Control of weed species after post-emergence application, ECHCG (100=total damage to plant; 0=no damage to plant)
[22] = Application Rate 500 g/Ha, Method A, read-out: Control of weed species after post-emergence application, SETFA (100=total damage to plant; 0=no damage to plant)
[23] = Application Rate 500 g/Ha, Method A, read-out: Control of weed species after post-emergence application, AMAPA (100=total damage to plant; 0=no damage to plant)
[24] = Application Rate 500 g/Ha, Method A, read-out: Control of weed species after post-emergence application, EPHHL (100=total damage to plant; 0=no damage to plant)

Question: What does the source list for O=S(=O)([O-])CC[n+]1ccc(-c2ccc(C(F)(F)F)nn2)cn1 [Compound A122]?
Answer: pest or weed control at 500 g/ha [1, 7]: 100%; pest or weed control at 500 g/ha (Lolium perenne (LOLPE); [8]): 70%; pest or weed control at 500 g/ha (Eleusine indica (ELEIN); [9]): 90%; pest or weed control at 500 g/ha [2, 10]: 40%; pest or weed control at 500 g/ha [3, 11]: 70%; pest or weed control at 500 g/ha [4, 12]: 40%; pest or weed control at 500 g/ha (Setaria faberi (SETFA); [13]): 60%; pest or weed control at 500 g/ha [5, 14]: 100%; pest or weed control at 500 g/ha [6, 15]: 100%

Question: O=S(=O)([O-])CC[n+]1ccc(-c2ccccn2)cn1 [Compound A64] was tested. Which pest or weed control at 500 g/ha [1, 7] did it give?
Answer: 90%

Question: What about the pest or weed control at 500 g/ha (Lolium perenne (LOLPE); [8]) of the same molecule?
Answer: 80%

Question: And the pest or weed control at 500 g/ha (Eleusine indica (ELEIN); [9])?
Answer: 100%

Question: What about the pest or weed control at 500 g/ha [2, 10] of the same molecule?
Answer: 80%

Question: And the pest or weed control at 500 g/ha [3, 11]?
Answer: 20%

Question: And the pest or weed control at 500 g/ha [4, 12]?
Answer: 60%

Question: And the pest or weed control at 500 g/ha (Setaria faberi (SETFA); [13])?
Answer: 90%

Question: And the pest or weed control at 500 g/ha [5, 14]?
Answer: 90%

Question: What about the pest or weed control at 500 g/ha [6, 15] of the same molecule?
Answer: 100%

Question: Which pest or weed control at 500 g/ha [1, 7] does the source give for CS(=O)(=O)c1cnc(-c2cc[n+](CCC(=O)[O-])nc2)nc1 [Compound A46] here?
Answer: 10%

Question: And the pest or weed control at 500 g/ha (Lolium perenne (LOLPE); [8])?
Answer: 20%

Question: What about the pest or weed control at 500 g/ha (Eleusine indica (ELEIN); [9]) of the same molecule?
Answer: 50%

Question: And the pest or weed control at 500 g/ha [2, 10]?
Answer: 50%

Question: What about the pest or weed control at 500 g/ha [3, 11] of the same molecule?
Answer: 10%

Question: And the pest or weed control at 500 g/ha [4, 12]?
Answer: 30%

Question: What about the pest or weed control at 500 g/ha (Setaria faberi (SETFA); [13]) of the same molecule?
Answer: 50%

Question: What about the pest or weed control at 500 g/ha [5, 14] of the same molecule?
Answer: 70%

Question: And the pest or weed control at 500 g/ha [6, 15]?
Answer: 60%

Question: For Cc1cnc(-c2cc[n+](CCS(=O)(=O)[O-])nc2)c(Cl)c1 [Compound A136], which pest or weed control at 500 g/ha [1, 7] is on record?
Answer: 30%

Question: And the pest or weed control at 500 g/ha (Lolium perenne (LOLPE); [8])?
Answer: 20%

Question: What about the pest or weed control at 500 g/ha (Eleusine indica (ELEIN); [9]) of the same molecule?
Answer: 50%

Question: What about the pest or weed control at 500 g/ha [2, 10] of the same molecule?
Answer: 60%

Question: And the pest or weed control at 500 g/ha [3, 11]?
Answer: 30%

Question: What about the pest or weed control at 500 g/ha [4, 12] of the same molecule?
Answer: 40%

Question: What about the pest or weed control at 500 g/ha (Setaria faberi (SETFA); [13]) of the same molecule?
Answer: 70%

Question: What about the pest or weed control at 500 g/ha [5, 14] of the same molecule?
Answer: 60%

Question: And the pest or weed control at 500 g/ha [6, 15]?
Answer: 30%

Question: Which results are given for O=S(=O)([O-])CC[n+]1ccc(-c2ncc(Cl)cn2)cn1 [Compound A17]?
Answer: pest or weed control at 500 g/ha [1, 7]: 30%; pest or weed control at 500 g/ha (Lolium perenne (LOLPE); [8]): 10%; pest or weed control at 500 g/ha (Eleusine indica (ELEIN); [9]): 60%; pest or weed control at 500 g/ha [2, 10]: 60%; pest or weed control at 500 g/ha [3, 11]: 30%; pest or weed control at 500 g/ha [4, 12]: 40%; pest or weed control at 500 g/ha (Setaria faberi (SETFA); [13]): 40%; pest or weed control at 500 g/ha [5, 14]: 100%; pest or weed control at 500 g/ha [6, 15]: 30%

Question: Which results are given for Cc1cccnc1-c1cc[n+](CCC(=O)[O-])nc1 [Compound A65]?
Answer: pest or weed control at 500 g/ha [1, 7]: 10%; pest or weed control at 500 g/ha (Lolium perenne (LOLPE); [8]): 10%; pest or weed control at 500 g/ha (Eleusine indica (ELEIN); [9]): 40%; pest or weed control at 500 g/ha [2, 10]: 30%; pest or weed control at 500 g/ha [3, 11]: 10%; pest or weed control at 500 g/ha [4, 12]: 30%; pest or weed control at 500 g/ha (Setaria faberi (SETFA); [13]): 40%; pest or weed control at 500 g/ha [5, 14]: 40%; pest or weed control at 500 g/ha [6, 15]: 20%

Question: What does the source list for Nc1nccc(-c2cc[n+](CCS(=O)(=O)[O-])nc2)n1 [Compound A158]?
Answer: pest or weed control at 500 g/ha [1, 16]: 80%; pest or weed control at 500 g/ha (Lolium perenne (LOLPE); [17]): 30%; pest or weed control at 500 g/ha (Eleusine indica (ELEIN); [18]): 50%; pest or weed control at 500 g/ha [2, 19]: 30%; pest or weed control at 500 g/ha [3, 20]: 30%; pest or weed control at 500 g/ha [4, 21]: 20%; pest or weed control at 500 g/ha (Setaria faberi (SETFA); [22]): 40%; pest or weed control at 500 g/ha [5, 23]: 100%; pest or weed control at 500 g/ha [6, 24]: 80%

Question: How did the pest or weed control at 500 g/ha [1, 16] turn out when O=S(=O)([O-])OCCC[n+]1ccc(-c2ncccn2)cn1 [Compound A216] was run?
Answer: 90%

Question: And the pest or weed control at 500 g/ha (Lolium perenne (LOLPE); [17])?
Answer: 70%

Question: And the pest or weed control at 500 g/ha (Eleusine indica (ELEIN); [18])?
Answer: 100%

Question: And the pest or weed control at 500 g/ha [2, 19]?
Answer: 100%

Question: What about the pest or weed control at 500 g/ha [3, 20] of the same molecule?
Answer: 60%

Question: And the pest or weed control at 500 g/ha [4, 21]?
Answer: 70%

Question: What about the pest or weed control at 500 g/ha (Setaria faberi (SETFA); [22]) of the same molecule?
Answer: 90%

Question: And the pest or weed control at 500 g/ha [5, 23]?
Answer: 100%

Question: And the pest or weed control at 500 g/ha [6, 24]?
Answer: 100%
